Measurements taken from the NIST ThermoML archive (doi:10.1016/j.jct.2007.10.010).
Several values for one entry are separate records, joined by “and”; a condition that tells them apart may be missing. Equal entries are not always repeated. ± gives the expanded uncertainty stated by the source.

Legend:
[1] = 101 kPa, Liquid
[2] = refractive index (Na D-line) (dimensionless); conditions: 298.15 K; 101.33 kPa; Liquid; Standard Abbe refractometry
[3] = xn = mol fraction of the nth substance listed; conditions: 101 kPa, Liquid

CCCCCCCC [octane]
[1]
Conditions	mass density
298.15 K	698.62 ± 0.62 kg/m3 [middle of 4 runs]
308.15 K	690.44 ± 0.63 kg/m3 and 690.43 ± 0.63 kg/m3 and 690.45 ± 0.63 kg/m3
318.15 K	682.47 ± 0.64 kg/m3 and 682.49 ± 0.64 kg/m3
328.15 K	674.55 ± 0.66 kg/m3 and 674.56 ± 0.66 kg/m3 and 674.54 ± 0.66 kg/m3

Conditions	refractive index
[2]	1.395 ± 0.0007

CCCCCCCC [octane] + Cc1cc(C)cc(C)c1
[3], x1 = 1
Conditions	mass density [kg/m3]
298.15 K	698.62 ± 0.62
308.15 K	690.45 ± 0.63
318.15 K	682.49 ± 0.64
328.15 K	674.54 ± 0.66

CCCCCCCC [octane] + Cc1cccc(C)c1
[3], x1 = 1
Conditions	mass density [kg/m3]
298.15 K	698.63 ± 0.62
308.15 K	690.43 ± 0.63
318.15 K	682.49 ± 0.64
328.15 K	674.56 ± 0.66

CCCCCCCC [octane] + Cc1ccccc1
mass density [kg/m3], [3]
Conditions	298.15 K	308.15 K	318.15 K	328.15 K
x1 = 0.0654	845.89 ± 0.37	836.6 ± 0.38	–	–
x1 = 0.0675	–	–	826.95 ± 0.4	817.77 ± 0.41
x1 = 0.1229	–	–	814.22 ± 0.42	805.12 ± 0.43
x1 = 0.1283	831.23 ± 0.39	822.06 ± 0.41	–	–
x1 = 0.1979	816.17 ± 0.42	807.1 ± 0.43	–	–
x1 = 0.2052	–	–	796.69 ± 0.45	787.73 ± 0.46
x1 = 0.2524	805.13 ± 0.43	796.14 ± 0.45	–	–
x1 = 0.2613	–	–	785.56 ± 0.47	776.68 ± 0.48
x1 = 0.312	793.74 ± 0.45	784.82 ± 0.47	–	–
x1 = 0.3142	–	–	775.67 ± 0.48	766.87 ± 0.5
x1 = 0.3931	779.27 ± 0.48	770.46 ± 0.49	–	–
x1 = 0.398	–	–	761 ± 0.51	752.32 ± 0.52
x1 = 0.4544	769.05 ± 0.5	760.31 ± 0.51	–	–
x1 = 0.4553	–	–	751.61 ± 0.52	743.01 ± 0.54
x1 = 0.5388	–	–	738.82 ± 0.54	730.32 ± 0.56
x1 = 0.5409	755.59 ± 0.52	746.93 ± 0.53	–	–
x1 = 0.6029	746.56 ± 0.53	737.98 ± 0.55	–	–
x1 = 0.6078	–	–	728.94 ± 0.56	720.55 ± 0.57
x1 = 0.6679	–	–	720.81 ± 0.57	712.48 ± 0.59
x1 = 0.6717	737.09 ± 0.55	728.58 ± 0.56	–	–
x1 = 0.7202	730.75 ± 0.56	722.3 ± 0.57	–	–
x1 = 0.7262	–	–	713.32 ± 0.59	705.06 ± 0.6
x1 = 0.7985	–	–	704.51 ± 0.6	696.33 ± 0.62
x1 = 0.8064	720.08 ± 0.58	711.7 ± 0.59	–	–
x1 = 0.863	–	–	697.07 ± 0.62	688.97 ± 0.63
x1 = 0.8727	712.36 ± 0.59	704.05 ± 0.61	–	–
x1 = 0.9143	–	–	691.43 ± 0.63	683.39 ± 0.64
x1 = 0.9312	705.88 ± 0.61	697.62 ± 0.62	–	–
x1 = 1	698.61 ± 0.62	690.44 ± 0.63	682.49 ± 0.64	674.55 ± 0.66

CCCCCCCC [octane] + c1ccccc1
[3]
Conditions	mass density [kg/m3]
298.15 K, x1 = 0.06831	850.82 ± 0.37
298.15 K, x1 = 0.1358	831.14 ± 0.4
298.15 K, x1 = 0.2041	813.51 ± 0.43
298.15 K, x1 = 0.2616	800.23 ± 0.45
298.15 K, x1 = 0.3322	785.49 ± 0.48
298.15 K, x1 = 0.3912	774.33 ± 0.49
298.15 K, x1 = 0.4581	762.82 ± 0.51
298.15 K, x1 = 0.5388	750.32 ± 0.53
298.15 K, x1 = 0.6054	740.95 ± 0.55
298.15 K, x1 = 0.664	733.37 ± 0.56
298.15 K, x1 = 0.7116	727.59 ± 0.57
298.15 K, x1 = 0.7979	717.91 ± 0.59
298.15 K, x1 = 0.8682	710.7 ± 0.6
298.15 K, x1 = 0.9264	705.15 ± 0.61
298.15 K, x1 = 1	698.6 ± 0.62
308.15 K, x1 = 0.06734	840.85 ± 0.39
308.15 K, x1 = 0.1335	821.8 ± 0.42
308.15 K, x1 = 0.1989	804.98 ± 0.44
308.15 K, x1 = 0.2562	791.81 ± 0.47
308.15 K, x1 = 0.3283	776.91 ± 0.49
308.15 K, x1 = 0.3888	765.56 ± 0.51
308.15 K, x1 = 0.4682	752.18 ± 0.53
308.15 K, x1 = 0.5284	742.95 ± 0.54
308.15 K, x1 = 0.5971	733.35 ± 0.56
308.15 K, x1 = 0.6592	725.32 ± 0.57
308.15 K, x1 = 0.7248	717.54 ± 0.59
308.15 K, x1 = 0.8156	707.74 ± 0.6
308.15 K, x1 = 0.8852	700.86 ± 0.61
308.15 K, x1 = 0.9515	694.77 ± 0.62
308.15 K, x1 = 1	690.44 ± 0.63
318.15 K, x1 = 0.06734	830.41 ± 0.4
318.15 K, x1 = 0.1335	811.7 ± 0.43
318.15 K, x1 = 0.1932	796.52 ± 0.46
318.15 K, x1 = 0.2511	783.28 ± 0.48
318.15 K, x1 = 0.3289	767.43 ± 0.5
318.15 K, x1 = 0.3937	755.54 ± 0.52
318.15 K, x1 = 0.4681	743.19 ± 0.54
318.15 K, x1 = 0.5302	733.8 ± 0.56
318.15 K, x1 = 0.5866	726.02 ± 0.57
318.15 K, x1 = 0.6709	715.36 ± 0.59
318.15 K, x1 = 0.7248	709.07 ± 0.6
318.15 K, x1 = 0.8156	699.39 ± 0.62
318.15 K, x1 = 0.8852	692.61 ± 0.63
318.15 K, x1 = 0.9515	686.61 ± 0.64
318.15 K, x1 = 1	682.47 ± 0.64
328.15 K, x1 = 0.06734	820.09 ± 0.42
328.15 K, x1 = 0.1335	801.67 ± 0.45
328.15 K, x1 = 0.1932	786.83 ± 0.47
328.15 K, x1 = 0.2511	773.79 ± 0.49
328.15 K, x1 = 0.3289	758.15 ± 0.52
328.15 K, x1 = 0.3937	746.47 ± 0.54
328.15 K, x1 = 0.4681	734.35 ± 0.56
328.15 K, x1 = 0.5302	725.13 ± 0.57
328.15 K, x1 = 0.5866	717.46 ± 0.58
328.15 K, x1 = 0.6709	706.93 ± 0.6
328.15 K, x1 = 0.7248	700.75 ± 0.61
328.15 K, x1 = 0.8156	691.2 ± 0.63
328.15 K, x1 = 0.8852	684.52 ± 0.64
328.15 K, x1 = 0.9515	678.62 ± 0.65
328.15 K, x1 = 1	674.54 ± 0.66

Cc1ccccc1 [toluene]
[1]
Conditions	mass density [kg/m3]
298.15 K	862.29 ± 0.34
308.15 K	852.86 ± 0.36
318.15 K	843.6 ± 0.37
328.15 K	834.29 ± 0.39

Conditions	refractive index
[2]	1.4941 ± 0.0007

Cc1ccccc1 [toluene] + CCCCCCCC
[3], x2 = 0
Conditions	mass density [kg/m3]
298.15 K	862.29 ± 0.34
308.15 K	852.86 ± 0.36
318.15 K	843.6 ± 0.37
328.15 K	834.29 ± 0.39
